Patent US8367677B2, “Non-glycosylated/non-glycosidic/non-peptidic small molecule PSGL-1 mimetics for the treatment of inflammatory disorders” (Revotar Biopharmaceuticals AG, priority 2004, dated 2013)

What was measured:
[1] = target: T1, human L-Selectin-IgG-chimera (Homo sapiens, UniProt P14151); test: Sialyl Lewis x Tyrosine Sulfate Assay (sLex TSA), L-selectin; assay type: binding; details: compound at 100 μM
T1 construct: fused on or other part: human IgG Fc part, a tag and dimerising handle that is captured by the goat anti-human Fc antibody on the plate
T1 sequence (P14151 39-318 limits assumed): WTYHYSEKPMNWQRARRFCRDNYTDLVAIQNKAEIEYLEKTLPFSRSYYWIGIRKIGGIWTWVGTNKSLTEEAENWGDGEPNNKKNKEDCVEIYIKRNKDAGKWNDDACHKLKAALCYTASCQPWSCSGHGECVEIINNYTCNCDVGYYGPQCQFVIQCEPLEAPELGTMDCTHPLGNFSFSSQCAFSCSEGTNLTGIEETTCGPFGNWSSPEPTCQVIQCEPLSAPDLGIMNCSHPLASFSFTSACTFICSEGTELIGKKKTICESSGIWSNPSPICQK
Description: (§1) Compounds of the present invention are assayed on a molecular level for their ability to inhibit the binding of P-, L-, or E-selectin chimeric molecules to sLe^x and tyrosinesulfate residues linked to a polymeric matrix as a PSGL-1 substitute.
(§2) Microtiter plates are coated overnight in carbonate buffer pH9.6 with goat anti human Fc mAB (10 μg/ml). After washing in assay buffer (25 mM 4-(2-hydroxyethyl)-1-piperazineethanesulfonic acid (HEPES), 150 mM NaCl, 1 mM CaCl2 pH7.4) and blocking (3% bovine serum albumin (BSA) in assay buffer) plates are incubated for 2 h at 37° C. with human P-Selectin-IgG-chimera (0.61 nM respectively 150 ng/mL) or human L-Selectin-IgG-chimera (0.61 nM respectively 89 ng/mL) or human E-Selectin-IgG-chimera (0.61 nM respectively 131 ng/mL). 5 μl of sLe^x-tyrosine sulfate polyacrylamide (1 mg/ml) carrying 15% sLe^x, 10% Tyrosine-sulfate and 5% biotin is complexed with 20 μl Streptavidin-Peroxidase solution (1 mg/ml) and 25 μl assay buffer without CaCl2. For use in the assay, the ligand complex is diluted 1:10000 in assay buffer and further diluted 1:1 with varying amounts of compounds in assay buffer incl. 2% DMSO. This mixture is added to the wells precoated with E- or P-selectin. After incubation for 2 h at 37° C., wells are washed for six times with in assay buffer incl. 0.005% Polyoxyethylenesorbitan monolaurate (TWEEN 20), developed for 10-15 min with 20 μl 3,3′,5,5′-tetramethylbenzidine (TMB)/H2O2 substrate solution and stopped with 20 μl […]. Bound sLe^x-Tyrosine sulfate ligand complex is determined by measuring optical density at 450 nm vs. 620 nm in a Fusion alpha-FP reader (sold from Packard Bioscience, Dreieich, Germany).

[2] = target: T2, human E-Selectin-IgG-chimera (Homo sapiens, UniProt P16581); test: Sialyl Lewis x Tyrosine Sulfate Assay (sLex TSA), E-selectin; assay type: binding; details: compound at 100 μM
T2 construct: fused on or other part: human IgG Fc part, a tag and dimerising handle that is captured by the goat anti-human Fc antibody on the plate
T2 sequence (P16581 22-175 limits assumed): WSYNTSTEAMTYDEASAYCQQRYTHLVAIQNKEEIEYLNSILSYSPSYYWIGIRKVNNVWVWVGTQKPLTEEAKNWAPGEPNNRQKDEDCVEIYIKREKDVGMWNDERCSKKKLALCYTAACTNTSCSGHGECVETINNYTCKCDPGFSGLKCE
Description: as §1, §2

[3] = test system: human E-selectin-IgG chimera; test: Flow chamber assay, cell adhesion and rolling under flow conditions, E-selectin; assay type: cell-based; details: 125 μM compound, flow shear 1 dyne/cm^2
Description: (§3) To assess the capability of compounds to inhibit cell binding under dynamic conditions resembling the flow in a blood vessel, flow chamber assays addressing/testing binding of HL-60 cells/various cell lines to P-selectin, L-selectin and E-selectin chimeric molecules are performed.
(§4) Cell attachment under flow conditions are determined using a parallel flow chamber system. A 35 mm polystyrene culture dish is coated for 1 hour at room temperature with coating buffer (50 mM tris-(hydroxymethyl)aminomethane buffer (Tris), 150 mM NaCl, 2 mM CaCl2; pH 7,4) containing human E- or P-selectin-IgG chimera at concentrations of 2.5 μg/ml or 10 μg/ml, respectively. After removal of the coating solution non specific binding sites are blocked for an additional hour with 1% BSA in coating buffer at room temperature. After washing with assay buffer (“Roswell Park Memorial Institute 1640” (RPMI 1640)+10 mM HEPES) the dish is fitted into a parallel plate laminar flow chamber (sold from Glycotech, Rockville, Md.) and mounted on an inverted phase-contrast microscope (sold from Olympus, Hamburg, Germany) equipped with a CCD camera (JVC) that is connected to a PC. Employing a peristaltic pump (sold from Ismatec, Wertheim-Mondfeld, Germany) the re-circulating system is equilibrated with assay buffer containing 125 μM compound or vehicle control (DMSO). Cells (1 million/ml) are added to the chamber and allowed to distribute for 2 minutes at a high flow rate. The flow rate is then decreased resulting in a calculated flow shear of 1 dyne/cm^2. Video sequences of 10 low power fields are digitally recorded after 5 minutes continuous flow. The percentage of inhibition is calculated from the mean number of cells per field that attached to the coated dish surface in the presence versus absence of compound […].

[4] = Parallel Artificial Membrane Permeation Assay (PAMPA); assay type: in vitro ADME; details: 16 hours, room temperature; for [% flux] at pH 4.0: pH 4.0, 500 μM donor; for [% flux] at pH 7.4: pH 7.4, 500 μM donor
Description: The test compounds are dissolved at 10 mM in DMSO and diluted to 500 μM with PBS pH 7.4 or pH 4.0, respectively resulting in ‘donor solutions’. For use as an artificial membrane, a 1% solution of lecithin (w/v) in dodecane is prepared and sonicated. Then, 5 μl of the lecithin/dodecane mixture are carefully pipetted into each donor plate well. Immediately after the application of the artificial membrane, 150 μl of drug containing donor solutions are added to each well of the donor plate. Each well of the acceptor plate is filled with 300 μl buffer (PBS with 5% DMSO at pH 7.4 or pH 4.0, respectively) and the drug-filled donor plate is placed onto the acceptor plate, making sure the membrane is in contact with the buffer. After replacement of the lid, the assembled plates are transferred into a sealed box equipped with a moistured towel and incubated at room temperature for 16 hours. Then, the wells of the acceptor plate are analyzed with LC/MS.

[5] = target: T3, human P-Selectin-IgG-chimera (Homo sapiens, UniProt P16109); test: Sialyl Lewis x Tyrosine Sulfate Assay (sLex TSA), P-selectin; assay type: binding; details: compound at 100 μM
T3 sequence (P16109 42-771 limits assumed): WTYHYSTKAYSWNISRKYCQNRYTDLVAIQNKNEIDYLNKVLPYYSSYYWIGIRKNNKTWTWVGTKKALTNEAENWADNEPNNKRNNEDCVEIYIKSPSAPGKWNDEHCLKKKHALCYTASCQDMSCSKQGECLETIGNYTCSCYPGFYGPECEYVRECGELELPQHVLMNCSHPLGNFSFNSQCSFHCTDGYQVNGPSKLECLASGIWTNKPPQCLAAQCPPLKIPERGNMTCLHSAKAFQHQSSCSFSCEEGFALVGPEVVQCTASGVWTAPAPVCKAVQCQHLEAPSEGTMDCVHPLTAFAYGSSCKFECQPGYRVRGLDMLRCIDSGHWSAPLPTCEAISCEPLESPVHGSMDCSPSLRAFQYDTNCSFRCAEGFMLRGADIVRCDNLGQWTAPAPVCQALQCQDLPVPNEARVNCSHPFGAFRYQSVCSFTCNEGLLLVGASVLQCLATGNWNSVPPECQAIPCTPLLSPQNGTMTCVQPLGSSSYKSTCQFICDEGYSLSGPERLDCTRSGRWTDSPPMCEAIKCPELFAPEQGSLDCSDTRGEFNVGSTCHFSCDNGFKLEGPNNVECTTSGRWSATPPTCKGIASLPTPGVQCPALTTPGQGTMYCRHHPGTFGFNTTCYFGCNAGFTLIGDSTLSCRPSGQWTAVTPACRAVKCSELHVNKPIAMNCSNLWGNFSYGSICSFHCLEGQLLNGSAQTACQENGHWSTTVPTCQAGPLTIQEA
Description: as §1, §2

[6] = test system: human P-selectin-IgG chimera; test: Flow chamber assay, cell adhesion and rolling under flow conditions, P-selectin; assay type: cell-based; details: 125 μM compound, flow shear 1 dyne/cm^2
Description: as §3, §4

SMILES	L-Selectin [% Inhib.] [1] [%]	E-Selectin [% Inhib.] [2] [%]	E-Selectin [% Inhib.] of cell attachment [3] [%]	[% flux] at pH 4.0 [4] [%]	[% flux] at pH 7.4 [4] [%]	P-Selectin [% Inhib.] [5] [%]	P-Selectin [% Inhib.] of cell attachment [6] [%]
Cc1cccc(NC(=O)CCc2ccc(O)c(O)c2O)c1 [Compound 121]	77	29	18	12	12	73	44
Cc1cccc(NC(=O)Cc2ccc(O)c(O)c2O)c1 [Compound 122]	87	70	27	6	0	81	22
